Patent US9120820B2, “Fluorescent molecular probes for use in assays that measure test compound competitive binding with SAM-utilizing proteins” (CAYMAN CHEMICAL COMPANY, INCORPORATED, priority 2011, dated 2015)
Where two headings read alike, the source gives them in different places.

Assays:
G9a = target: T1, G9a (Homo sapiens, UniProt Q96KQ7); test: Fluorescence polarization saturation binding of fluorescent probe to G9a
T1 construct: purchased Cayman 49010353
T1 sequence (Q96KQ7 1-1210): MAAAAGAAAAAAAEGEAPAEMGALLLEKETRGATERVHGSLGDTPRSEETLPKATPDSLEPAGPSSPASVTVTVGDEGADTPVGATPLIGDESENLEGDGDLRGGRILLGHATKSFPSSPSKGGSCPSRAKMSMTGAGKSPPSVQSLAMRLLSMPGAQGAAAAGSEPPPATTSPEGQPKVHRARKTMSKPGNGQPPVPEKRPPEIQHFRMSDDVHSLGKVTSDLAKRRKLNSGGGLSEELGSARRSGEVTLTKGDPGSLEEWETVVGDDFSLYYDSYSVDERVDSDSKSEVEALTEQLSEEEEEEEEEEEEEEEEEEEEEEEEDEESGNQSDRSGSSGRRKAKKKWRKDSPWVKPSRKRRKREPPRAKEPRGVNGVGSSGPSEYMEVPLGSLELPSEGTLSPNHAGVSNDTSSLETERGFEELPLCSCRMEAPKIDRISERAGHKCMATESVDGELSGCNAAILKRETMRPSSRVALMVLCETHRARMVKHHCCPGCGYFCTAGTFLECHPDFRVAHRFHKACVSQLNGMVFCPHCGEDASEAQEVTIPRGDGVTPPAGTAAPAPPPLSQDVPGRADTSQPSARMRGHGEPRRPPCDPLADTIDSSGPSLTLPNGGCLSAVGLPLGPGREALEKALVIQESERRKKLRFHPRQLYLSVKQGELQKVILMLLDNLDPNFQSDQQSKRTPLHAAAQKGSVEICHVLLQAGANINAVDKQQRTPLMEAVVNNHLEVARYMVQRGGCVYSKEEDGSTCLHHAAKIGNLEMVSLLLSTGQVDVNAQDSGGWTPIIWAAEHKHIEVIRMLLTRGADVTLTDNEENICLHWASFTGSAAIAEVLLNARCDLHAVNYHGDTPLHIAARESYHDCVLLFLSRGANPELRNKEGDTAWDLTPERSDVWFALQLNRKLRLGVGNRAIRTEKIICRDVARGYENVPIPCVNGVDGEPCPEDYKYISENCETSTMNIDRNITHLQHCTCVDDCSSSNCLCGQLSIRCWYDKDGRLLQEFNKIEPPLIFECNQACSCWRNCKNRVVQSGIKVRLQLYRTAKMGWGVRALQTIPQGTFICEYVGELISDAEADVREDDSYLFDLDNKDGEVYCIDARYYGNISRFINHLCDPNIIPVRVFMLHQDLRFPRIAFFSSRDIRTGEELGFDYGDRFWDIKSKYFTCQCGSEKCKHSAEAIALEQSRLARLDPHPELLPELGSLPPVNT
Protocol: Methods: The experiment was performed once, with two replicate wells for all methyltransferases per condition. The sole exception to this is NSD2 (see details below). The assay was performed in a ½ area, black, 96-well plate (Corning #3686) in a final volume of 30 μL. Methyltransferases (Table 1) were serially diluted two-fold in FP buffer (Cayman Catalog #600028) and 15 μL of a given dilution were added per well to the assay plate. Fifteen microliters of sinefungin probe 1A (10 nM) were added to each well, giving a final sinefungin probe 1A concentration of 5 nM. This concentration of sinefungin probe 1A was chosen because it had at least a 10-fold increase in fluorescence (excitation max 575 nm/emission max 615 nm) over background (buffer). The mixture was incubated in the dark at room temperature for 30 minutes and its fluorescence polarization was read using a BioTek Synergy 4.

MLL = test: High-throughput FP Sinefungin Probe 1A binding assay adapted for MLL; conditions: MLL 1 μM, FIG. 10
Protocol: Adaptation for GLP and MLL: Assays for probe binding to two other methyltransferases (GLP and MLL) were also adapted to high throughput format. The assay conditions were identical to the SET7/9 assay, however the protein concentration was increased to raise the signal:noise ratio for the assay. For GLP, the protein concentration was raised to 500 nM, while the concentration of MLL was raised to 1 μM. Data were analyzed in GraphPad Prism (v. 5.04) and/or GeneData (v. 9.01).
This assay was also adapted for high throughput format against the methyltransferase MLL (Cayman Catalog Item #10658). Relevant data are illustrated in FIG. 10: The fluorescence polarization (FP) Sinefungin Probe 1A binding assay was adapted to a high-throughput inhibitor screening format for both A) MLL and B) SET7/9. The probe polarization is increased by >120 mp by binding to SET7/9 (30 nM) and by >145 mp by binding to MLL (1 μM). […] Sixty-four replicates were tested for each condition for SET7/9, sixteen replicates were tested for MLL. Z′ factor scores were >0.5 for all conditions tested (SET7/9:sinefungin: 0.71; SAM: 0.72; no SET7/9: 0.69; MLL:sinefungin: 0.72).

For `Nc1ncnc2c1ncn2[C@@H]1O[C@H](C[C@@H](N)CC[C@H](N)C(=O)O)[C@@H](OCc2cnnn2CCCCCCNC(=O)OC2CCN(C(=O)c3ccccc3C3=c4cc5c6c(c4Oc4c3cc3c7c4CCCN7CCC3)CCC[N+]=6CCC5)CC2)[C@H]1O` [Sinefungin Probe 1A], which Kd (G9a; Example 8, G9a, 5 nM probe, experiment performed once, FIG. 2, read-out: Kd) is on record?
Its Kd is roughly 700 nM.

And the Kd (G9a; G9a, saturation-binding format, mean ± SEM, read-out: Sinefungin Probe 1A Affinity)?
The Kd was 1800 ± 1000 nM.

And the “increase of probe polarization by binding” value (MLL)?
Its value is greater than 145 mp.
